Data: paper PMC12376128, “In vitro and In Vivo Drug Metabolism Analysis of BPI-460372 - A Covalent TEAD1/3/4 Inhibitor” (Current Drug Metabolism, 2025)
Each block holds one compound with its values, some of them ahead of it.

How the values were obtained:
monkey hepatocytes [1] = test: Metabolism and metabolite formation in hepatocytes; type: in vitro ADME, cynomolgus monkey; conditions: for UV (314 nm) Peak Areas Relative Abundance: cynomolgus monkey hepatocytes, 10 µM BPI-460372, 4 h incubation;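 for Area Ratio T4 h: peak area of analyte divided by internal standard peak area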
From the text: (§1) All the samples were duplicates.

dog hepatocytes [2] = test: Metabolism and metabolite formation in hepatocytes; type: in vitro ADME, beagle dog; conditions: for UV (314 nm) Peak Areas Relative Abundance: beagle dog hepatocytes, 10 µM BPI-460372, 4 h incubation;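 for Area Ratio T0 h: peak area of analyte divided by internal standard peak area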;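 for Area Ratio T4 h: peak area of analyte divided by internal standard peak area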
From the text: as §1

rat hepatocytes [3] = test: Metabolism and metabolite formation in hepatocytes; type: in vitro ADME, SD rat; conditions: for UV (314 nm) Peak Areas Relative Abundance: SD rat hepatocytes, 10 µM BPI-460372, 4 h incubation;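 for Area Ratio T0 h: peak area of analyte divided by internal standard peak area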
From the text: as §1

mouse hepatocytes [4] = test: Metabolism and metabolite formation in hepatocytes; type: in vitro ADME, ICR mouse; conditions: for UV (314 nm) Peak Areas Relative Abundance: ICR mouse hepatocytes, 10 µM BPI-460372, 4 h incubation;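 for Area Ratio T0 h: peak area of analyte divided by internal standard peak area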;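 for Area Ratio T4 h: peak area of analyte divided by internal standard peak area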
From the text: as §1

[5] = Metabolite identification in rat plasma, urine, feces and bile; type: in vivo, SD rats; conditions: for Relative abundance of MS peak areas, Rat Bile 0-48 h / Relative abundance of MS peak areas, Rat Feces 0-48 h / Relative abundance of MS peak areas, Rat Urine 0-48 h: oral 6 mg/kg BPI-460372, average of male and female pooled samples; for Relative abundance of MS peak areas, Rat Plasma 0-24 h: oral 12 mg/kg BPI-460372, average of male and female pooled samples
Experimental: (§2) The plasma samples were acquired from SD rats (n=6, 3 female and 3 male) and beagle dogs (n=6, 3 female and 3 male) after administration of 12 mg/kg and 8 mg/kg of BPI-460372, respectively. The rat urine, feces, and bile samples were acquired in SD rats after administration of 6 mg/kg of BPI-460372.
(§3) Equal volume from each rat was pooled together to get 1 male and 1 female 0-24 h plasma samples. An equal percentage by volume of individual urine sample (0-8, 8-24, and 24-48 h) from 3 female and 3 male rats was pooled by time interval across rats, respectively, resulting in two pooled urine samples (1 male and 1 female). An equal percentage by weight of individual feces samples (0-8, 8-24, and 24-48 h) was pooled by time interval across female and male rats, resulting in two pooled fecal samples. An equal percentage by volume of individual bile samples (0-4, 4-8, 8-24, and 24-48 h) was pooled by time interval across female and male rats, resulting in two pooled bile samples. […] Equal volumes from 3 female and 3 male rats were pooled together to get two 0-48 h plasma samples. For blank samples of plasma, urine, and bile, equal volume was pooled across subjects. For a blank sample of feces, equal weight was pooled across rats.
(§4) The pooled plasma, feces, and bile samples were extracted by adding 3-fold volume of acetonitrile, and the mixture was vortexed (1 min) and sonicated (1 min) before centrifugation (7220 g, 5 min). The pooled urine samples were centrifuged (7220 g, 5 min). Then the supernatant was transferred into a clean tube and evaporated to dryness under the nitrogen stream. The residues were redissolved with an appropriate volume of acetonitrile/water (20: 80, v: v). After centrifugation, the redissolved solution was transferred into an HPLC vial for UHPLC-Orbitrap-HRMS (15000 g, 10 min, 4°C).

human hepatocytes [6] = test: Metabolism and metabolite formation in hepatocytes; conditions: human hepatocytes; for UV (314 nm) Peak Areas Relative Abundance: 10 µM BPI-460372, 4 h incubation
Experimental: 10 µM BPI-460372 was incubated in five species (human, cynomolgus monkey, beagle dog, SD rat, and ICR mouse) hepatocytes (1 × 10^6 cells·min^-1) at 37 °C for 4 h. 7-EC, as positive control, was incubated for 0 h and 4 h. For blank control, hepatocytes were inactivated by adding ice-cold acetonitrile, and then the BPI-460372 solution was added. All the samples were duplicates. Incubations were stopped using the same volume of cold acetonitrile. The tube was vortexed, and the duplicate samples were combined. Metabolite profiling and identification of BPI-460372 were conducted by using UHPLC-Orbitrap-HRMS. The samples of 7-EC were analyzed by LC-MS/MS and then semi-quantified using the peak area ratio of analyte versus IS.
For hepatocyte metabolite identification, the different metabolites of BPI-460372 were detected using an ACQUITY UPLC HSS T3 column (1.8 µm, 100 mm × 2.1 mm) and ACQUITY UPLC BEH C18 column (1.7 µm, 100 mm × 2.1 mm) for rat and dog metabolite identification. The mobile phase contained a mixture of 0.1% formic acid in water (A) and 0.1% formic acid in acetonitrile (B). The gradient elution program was as follows: 0.0-1.0 min, 5% B; 1.0-7.0 min, 5%-30% B; 7.0-12.0 min, 30%-80% B; 12.0-16.0 min, 80%-95% B; 16.0-18.0 min, 95% B; 18.0-18.1 min, 95%-5% B. Then, 5% B from 18.1 to 20.0 min was maintained for equilibration. The flow rate was set to 0.5 mL/min, and the column temperature was kept at 40°C. Eluted fractions were monitored by a UV detector at 314 nm.

in vitro = conditions: hepatocytes
Experimental: (§5) After mixing, 20 μL of cell suspension was serially transferred into 200 μL of cold acetonitrile containing IS at the time points of 0, 5, 15, 30, 60, and 120 min, respectively.
(§6) The metabolic stability was assessed by measuring the depletion of substrate. The half-life (t1/2), intrinsic clearance (CLint, in virto, µL·min^-1·million cells^-1), whole liver intrinsic clearance (CLint, in vivo, mL·min-1·kg^-1), and in vivo hepatic clearance (CLH, mL·min-1·kg^-1) were calculated following a reported method. In the calculation of CLH, the fraction drug unbound (Fub) was set as 1. The hepatic blood flow, liver weight, and hepatocellularity of five species were used for the calculation of CLint, in vivo [13, 14]. The hepatic extraction ratio (Eh) means the ratio of CLH to hepatic blood flow.

dog hepatocytes [7] = test: in vitro
Experimental: as §5, §6

human hepatocytes [8] = test: in vitro
Experimental: as §5, §6

monkey hepatocytes [9] = test: in vitro
Experimental: as §5, §6

mouse hepatocytes [10] = test: in vitro
Experimental: as §5, §6

rat hepatocytes [11] = test: in vitro
Experimental: as §5, §6

[12] = Metabolite identification in dog plasma; type: in vivo, beagle dogs; conditions: oral 8 mg/kg BPI-460372, average of male and female pooled samples
Experimental: as §2, §3, §4

UV (314 nm) Peak Areas Relative Abundance (monkey hepatocytes [1]): +
UV (314 nm) Peak Areas Relative Abundance (dog hepatocytes [2]): +
UV (314 nm) Peak Areas Relative Abundance (rat hepatocytes [3]): +
UV (314 nm) Peak Areas Relative Abundance (mouse hepatocytes [4]): 1.43%
Relative abundance of MS peak areas, Rat Bile 0-48 h [5]: 0.10%
UV (314 nm) Peak Areas Relative Abundance (human hepatocytes [6]): +
SMILES: NC(CCC(=O)NC(CSCC(O)C(=O)N1CC(n2c(=O)n(-c3ccc(C(F)(F)F)cc3)c3nccnc32)C1)C(=O)NCC(=O)O)C(=O)O (centres unmarked) [M712]

half-life at 1 µM (in vitro; ICR, mouse): 49.3 min
half-life at 1 µM (in vitro; SD, rat): 22.5 min
half-life at 1 µM (in vitro; beagle, dog): 29.8 min
half-life at 1 µM (in vitro; human): 20.4 min
half-life at 1 µM (in vitro; monkey): 17.8 min
CLH (dog hepatocytes [7]; beagle, dog, 1 µM): 25.9 mL/min/kg
Eh (dog hepatocytes [7]; beagle, dog, 1 µM): 0.838
CLint, in virto (dog hepatocytes [7]; dog, hepatocytes): 23.3 µL·min^-1·Million cells^-1
CLint, in vivo (dog hepatocytes [7]; hepatocytes): 160.0 mL/min/kg
CLint, in vivo (human hepatocytes [8]; hepatocytes): 122.6 mL/min/kg
CLH (human hepatocytes [8]; human, 1 µM): 17.7 mL/min/kg
Eh (human hepatocytes [8]; human, 1 µM): 0.856
CLint, in virto (human hepatocytes [8]; human, hepatocytes): 33.9 µL·min^-1·Million cells^-1
CLH (monkey hepatocytes [9]; cynomolgus monkey, 1 µM): 33.5 mL/min/kg
Eh (monkey hepatocytes [9]; cynomolgus monkey, 1 µM): 0.762
CLint, in vivo (monkey hepatocytes [9]; hepatocytes): 140.6 mL/min/kg
CLint, in virto (monkey hepatocytes [9]; monkey, hepatocytes): 39.0 µL·min^-1·Million cells^-1
CLH (mouse hepatocytes [10]; ICR, mouse, 1 µM): 58.5 mL/min/kg
Eh (mouse hepatocytes [10]; ICR, mouse, 1 µM): 0.650
CLint, in vivo (mouse hepatocytes [10]; hepatocytes): 167.1 mL/min/kg
CLint, in virto (mouse hepatocytes [10]; mouse, hepatocytes): 14.1 µL·min^-1·Million cells^-1
CLH (rat hepatocytes [11]; SD, rat, 1 µM): 39.9 mL/min/kg
Eh (rat hepatocytes [11]; SD, rat, 1 µM): 0.723
CLint, in vivo (rat hepatocytes [11]; hepatocytes): 144.0 mL/min/kg
CLint, in virto (rat hepatocytes [11]; rat, hepatocytes): 30.8 µL·min^-1·Million cells^-1
SMILES: O=c1ccc2ccc(O)cc2o1 [7-hydroxycoumarin]

UV (314 nm) Peak Areas Relative Abundance (monkey hepatocytes [1]): 3.01%
UV (314 nm) Peak Areas Relative Abundance (dog hepatocytes [2]): 22.65%
UV (314 nm) Peak Areas Relative Abundance (rat hepatocytes [3]): 18.4%
UV (314 nm) Peak Areas Relative Abundance (mouse hepatocytes [4]): 24.76%
Relative abundance of MS peak areas, Rat Bile 0-48 h [5]: 3.27%
UV (314 nm) Peak Areas Relative Abundance (human hepatocytes [6]): 3.01%
SMILES: NC(CCC(=O)NC(CSCC(F)C(=O)N1CC(n2c(=O)n(-c3ccc(C(F)(F)F)cc3)c3nccnc32)C1)C(=O)NCC(=O)O)C(=O)O (centres unmarked) [M714]

Relative abundance of MS peak areas, Rat Feces 0-48 h [5]: 2.79%
Relative abundance of MS peak areas, Rat Urine 0-48 h [5]: 2.52%
Relative abundance of MS peak areas, Rat Plasma 0-24 h [5]: 0.14%
Relative abundance of MS peak areas, Dog Plasma 0-48 h [12]: 0.98%
SMILES: O=c1n(-c2ccc(C(F)(F)F)cc2)c2nccnc2n1C1CN(C(O)C(O)CO)C1 (centres unmarked) [M425]

Relative abundance of MS peak areas, Rat Bile 0-48 h [5]: 1.52%
SMILES: NC(CSCC(O)C(=O)N1CC(n2c(=O)n(-c3ccc(C(F)(F)F)cc3)c3cncnc32)C1)C(=O)O (centres unmarked) [M526]

Area Ratio T0 h (monkey hepatocytes [1]; monkey hepatocytes, 7-EC incubation, 0 h): 6.08E+02
Area Ratio T4 h (monkey hepatocytes [1]; monkey hepatocytes, 7-EC incubation, 4 h): 1.55E+07
Area Ratio T0 h (dog hepatocytes [2]; dog hepatocytes, 7-EC incubation, 0 h): 0.00E+00
Area Ratio T4 h (dog hepatocytes [2]; dog hepatocytes, 7-EC incubation, 4 h): 1.27E+07
Area Ratio T0 h (rat hepatocytes [3]; rat hepatocytes, 7-EC incubation, 0 h): 1.45E+02
Area Ratio T4 h (rat hepatocytes [3]; rat hepatocytes, 7-EC incubation, 4 h): 8.08E+05
Area Ratio T0 h (mouse hepatocytes [4]; mouse hepatocytes, 7-EC incubation, 0 h): 0.00E+00
Area Ratio T4 h (mouse hepatocytes [4]; mouse hepatocytes, 7-EC incubation, 4 h): 7.44E+06
Area Ratio T0 h (human hepatocytes [6]; 7-EC incubation, 0 h): 1.07E+03
Area Ratio T4 h (human hepatocytes [6]; 7-EC incubation, 4 h): 3.85E+06
SMILES: O=C(O)[C@H]1O[C@@H](Oc2ccc3ccc(=O)oc3c2)[C@H](O)[C@@H](O)[C@@H]1O [7-EC-GluA, reference compound]

Relative abundance of MS peak areas, Rat Bile 0-48 h [5]: 0.56%
Relative abundance of MS peak areas, Rat Feces 0-48 h [5]: 1.65%
Relative abundance of MS peak areas, Rat Urine 0-48 h [5]: 6.73%
Relative abundance of MS peak areas, Rat Plasma 0-24 h [5]: 0.015%
SMILES: CC(=O)NC(CSCCC(=O)N1CC(n2c(=O)n(-c3ccc(C(F)(F)F)cc3)c3cncnc32)C1)C(=O)O (centres unmarked) [M552]
